Data: US9394520B2, “Expansion of hematopoietic stem cells” (University of Rochester, priority 2006, dated 2016)

Design: species or system mice
Conditions: mouse, in vivo
From the text: FIG. 8 is a graph showing that intermediate progenitors of hematopoietic stem cells are not increased by PGE2 treatment. Therefore, PGE2 specifically increases HSCs. The bone marrow mononuclear cells from mice treated with vehicle and PGE2 using colony forming unit-cell (CF-C) activity in vitro. […] Peripheral white blood cell and hematocrit levels were not changed in PGE2 vs. vehicle treated mice at 16 days (WBC counts: vehicle averaged 5.75±0.20×10^3/μl; PGE2 averaged 4.72±0.61×10^3/μl) (Hematocrit: vehicle averaged 42±1%; PGE2 averaged 43±2%) (n=6 for each treatment group).
FIG. 8 is a graph showing that intermediate progenitors of hematopoietic stem cells are not increased by PGE2 treatment. Therefore, PGE2 specifically increases HSCs. The bone marrow mononuclear cells from mice were treated with vehicle and PGE2 to determine if there was an increase in intermediate progenitors in response to PGE2 using the colony forming unit-cell (CFU-C) assay. […] In addition, peripheral white blood cell and hematocrit levels were not changed in PGE2 vs. vehicle treated mice at 16 days (WBC counts: vehicle averaged 5.75±0.20×10^3/μl; PGE2 averaged 4.72±0.61×10^3/μl) (Hematocrit: vehicle averaged 42±1%; PGE2 averaged 43±2%) (n=6 for each treatment group).

## CCCCC[C@H](O)/C=C/[C@H]1[C@H](O)CC(=O)[C@@H]1C/C=C\CCCC(=O)O [PGE2, Prostaglandin E2]
  Hematocrit: 43±2%
  peripheral platelets: not changed
